Consider 1 compound from patent US6723522B1, “Sodium bicarbonate cotransporter protein” (Takeda Chemical Industries, Ltd., priority 1998, dated 2004).

The test system of this assay is human heart-derived protein hNBC2b (Na+—HCO3− cotransporter). Description: Analysis of functions of human heart-derived protein by intracellular pH measurement (BCECF, ammonium pre-pulse) in hNBC2b-33/CHO-K1 cell. The settings on record: DIDS final concentration 100 μM, 1 mM amyloride present. It is filed as cell-based. As to the method: Data is expressed as mean±standard error. Comparison between 2 groups was carried out by T test and p<0.001 was determined to be significant. hNBC2b-33/CHO-K1 cell which had been cultured in Ham F12 medium (manufactured by Nissuiseiyaku) containing 10% bovine fetal serum (manufactured by Life Technologies, Inc.; USA) and wild type CHO-K1 cell as a control were seeded on a 96-well white plate to 2×10^4 cells/well, and cultured in a carbonic gas incubator at 37° C. for 48 hours. […] The solution was aspiration-removed, washed with 150 μl of A solution, the solution was aspiration-removed, 150 μl of A solution containing 1 mM amyloride (manufactured by Sigma) was added, and variation in an intracellular pH was measured with a fluorescent drug screening system FDSS 2000 (Hamamatsu Photonics). 200 μl of C solution (115 mM sodium chloride, 25 mM potassium chloride, 25 mM sodium bicarbonate, 0.8 mM dipotassium phosphate, 0.2 mM monopotassium phosphate, 1 mM potassium chloride, 1 mM magnesium chloride, 1 mM amyloride (manufactured by Sigma), 10 mM HEPES, pH 7.4) was added, and an increased amount of an intracellular pH increased in 1 minute (a ratio of fluorescent values at 450 nm and 490 nm (450 nm/490 nm)) was calculated. […]

Regarding `O=S(=O)(O)c1cc(N=C=S)ccc1C=Cc1ccc(N=C=S)cc1S(=O)(=O)O` [DIDS, 4,4′-diisothiocyanatostilbene-2,2′-disulfonic acid], the “increase in an intracellular pH after addition of C solution containing sodium ions and bicarbonate ions (ratio of fluorescent values 450 nm/490 nm)” value is recorded as “suppressed”.
